From US9724344B2, “Enhanced delivery of drug compositions to treat life threatening infections” (BOARD OF REGENTS, THE UNIVERSITY OF TEXAS SYSTEM, priority 2004, dated 2017)

What was measured:
[1] = Dissolution testing, United States Pharmacopeia 24 Type 2 apparatus (Examples 19-23); assay type: physicochemical; conditions: Avg
Description: For Examples 19-23, dissolution testing is performed on the samples using a United States Pharmacopeia 24 Type 2 apparatus (Distek Dissolution System […] with a TCS0200C heater/circulator; Crescent Scientific Pvt. Ltd.; Goregaon-East, Mumbai, India).

[2] = cited from earlier work
airway macrophages = assay: Macrophage uptake of ITZ dosed via pulmonary administration; assay type: in vivo; conditions: samples taken on days 1, 3, 8 and 12
Description: Cells (airway macrophages) were recovered from the lung and subjected to drug extraction and analyzed by mass spectroscopy for confirmation of ITZ presence in the macrophage.

IL-12p70 = assay: ELISA of BAL supernatant for IL-12 elevation (inflammatory response); assay type: in vivo, mice; conditions: pulmonary administration, compared to excipients alone and saline
Description: FIG. 5 is a chart depicting lung concentration levels of IL-12p70 for an embodiment of the present invention. Mean IL-12p70 concentrations measured according to Example 32 via ELISA assay of the positive control, negative control and BAL supernatants of sacrificed mice. Surgery was performed on sacrificed mice to expose the pleural cavity and trachea at the throat. A small incision was cut into the trachea and a cannula consisting of a 23 gauge needle with a sheath of plastic tubing (0.037″ outside diameter (OD) and 0.025″ ID) was inserted through the incision to the base of the trachea and clamped to seal the opening. An aliquot (0.75 mL) of phosphate buffered saline was instilled through the cannula into the lungs and then removed to wash the bronchial and alveolar surfaces. This process was repeated for a total of three washes. The phosphate buffered saline containing cells was placed into centrifuge vials and centrifuged at 300 rpm (MiniSpin Plus. Eppendorf International, Hamburg, Del.). The supernatant was removed leaving the collected cells in the pellet. The supernatant from the BAL (Bronchoalveolar Lavage) was analyzed by enzyme-linked immunosorbent assay (ELISA) for IL-12 elevation (n=2 per sample tested).

For `CCC(C)n1ncn(-c2ccc(N3CCN(c4ccc(OCC5COC(Cn6cncn6)(c6ccc(Cl)cc6Cl)O5)cc4)CC3)cc2)c1=O` (stereo not drawn) [Comparative Example 25], the “Percent Dissolved” value ([1]; 2 minutes) was 3.1%, the “Percent Dissolved” value ([1]; 5 minutes) was 4.8% and the “Percent Dissolved” value ([1]; 10 minutes) was 9.1%. For the same compound, the “Percent Dissolved” value ([1]; 15 minutes) was 12.7%, the “Percent Dissolved” value ([1]; 20 minutes) was 15.5% and the “Percent Dissolved” value ([1]; 25 minutes) was 18.2%. For the same compound, the “Percent Dissolved” value ([1]; 30 minutes) was 19.7%, the “Percent Dissolved” value ([1]; 60 minutes) was 38.9% and the “Percent Dissolved” value ([1]; 120 minutes) was 100.0%.

In the case of `CCC(C)n1ncn(-c2ccc(N3CCN(c4ccc(OCC5COC(Cn6cncn6)(c6ccc(Cl)cc6Cl)O5)cc4)CC3)cc2)c1=O` (stereo not drawn) [ITZ, itraconazole], the aqueous solubility [2] is given as under 1 µg/mL, the “ITZ presence in airway macrophages (mass spectroscopy)” value (airway macrophages) is given as “all showed the presence of ITZ” and the “IL-12 elevation in BAL supernatant” value (IL-12p70) is given as “does not result in IL-12 elevation”.
